# From patent US11530246B2, “Regulated synthetic gene expression systems” (TRUSTEES OF BOSTON UNIVERSITY, priority 2019, dated 2022)
# Entries after “also recorded” stand apart in the source; their conditions may differ.
# Assays:
# ZF-responsive promoter [1] = experiment: ABA-inducible transcriptional activation of a fluorescent protein using ABI/PYL domains, Jurkat; assay type: cell-based, human
# From the text: ABI/PYL induced proximity domains that are responsive to a small molecule (abscisic acid=ABA) can be used to regulate a synTF as described herein (see e.g., Liang et al. Sci Signal, 2011). The ABA-insensitive 1 (ABI1) and PYR1-like (PYL) domains originating form Arabidopsis thaliana have complementary surfaces that can conditionally interact when coordinated by the small molecule abscisic acid (ABA). ABA is a plant hormone that is naturally present at low levels within the human diet, and is subsequently presumed to be a safe small molecule for human administration.
# Subsequently, the administration of ABA can allow conditional dimerization between the ABI1 and PYL subunits, allowing the ZF and effector domains to remain locally coupled and retaining synTF functionality (see e.g., FIG. 3).
# Output fluorescence was measured as a function of several different ABA treatment concentrations as indicated (dose response; see e.g., FIG. 7A).
# ZF-responsive promoter [2] = experiment: Small molecule inducible synTF activation of fluorescent reporter in HEK293 and Jurkat cell lines; assay type: cell-based, human; details: both HEK293 and Jurkat cell lines; compared to untreated
# From the text: Output fluorescence as a function of several different small molecule (e.g., ABA, 4OHT, or grazoprevir) treatment concentrations is also indicated here.
# Inducible synTFs were first characterized using GFP (or another detectable marker such as mCherry) as the reporter. The whole system was introduced into Jurkat T cells via lentiviral transduction with multiplicity of infection of 25 to ensure high efficiency, quantifying viral copy number (VCN) with qPCR. To characterize the inducible synTF controllers, cells at 5×10^4 cells each in 96-well plates were inoculated with lentivirus, and eight different drug concentrations were added spanning three orders of magnitude (e.g., GZV 0-10 μM, 4OHT 0-1 μM), and GFP expression levels can be quantified with flow cytometry (see e.g., FIG. 10A-10D). Gene expression levels can be normalized to VCN. From these dose-responses, the dynamic range and threshold of activation can be defined. Since the single vector design can lack a selection marker, transduction efficiency was assumed to be equal to the percentage of GFP positive cells after induction by 4OHT or GZV.
# Tunable gene activation was achieved using small molecule inducible synTFs. Inducibility profiles were determined for each of the three inducible synTF activators, in both HEK293 and Jurkat cell lines. The reporter expression was evaluated across time and varying drug concentrations. Day 4 represented the highest levels of expression that were assayed, indicating strong inducible expression in drug-treated lines relative to untreated cell lines (see e.g., FIG. 10A-10D).
# ZF-responsive promoter [3] = experiment: Inducible synthetic transcriptional repression of a fluorescent protein, HEK293; assay type: cell-based, human; details: compared to untreated
# Experimental: Tunable gene silencing can also be achieved using small molecule inducible synTFs. Inducible synTFs were engineered that were capable of repressing gene expression. The responsive promoter was modified to constitutively express a fluorescent output. The p65 activation domain was replaced with a KRAB repression domain (human-derived silencer), and the same ZF-drug pairs were utilized as the synTF activators. Inducibility profiles were determined for each of the three inducible synTF repressors in HEK cell lines, and there was strong silencing of reporter expression over time in drug-treated lines relative to untreated cell lines (see e.g., FIG. 11A-11B, 12A-12C).
# ZF-responsive promoter [4] = experiment: 4OHT-inducible transcriptional activation of a fluorescent protein using ERT2 domain, Jurkat; assay type: cell-based, human
# From the text: ERT2 nuclear translocation domain, which is responsive to a small molecule (4-hydroxytamoxifen=4OHT), can be used to regulate a synTF as described herein (see e.g., Indra et al. Nucleic Acids Res (1999)). The human estrogen receptor (ER) contains a ligand responsive domain that, when fused to other protein domains, can yield ligand-dependent control over activity. The domain naturally associates with cytoplasmic factors in the cell in the absence of cognate ligands, effectively sequestering itself in the cytoplasm. Binding of cognate ligands, such as estrogen or other steroid hormone derivatives, cause a conformational change to the receptor that allow dissociation from the cytoplasmic complexes and expose a nuclear localization signal, permitting translocation into the nucleus.
# Subsequently, the administration of 4OHT can allow conditional nuclear translocation of the synTF, allowing synTF functionality in the cellular nucleus (see e.g., FIG. 4).
# Output fluorescence was measured as a function of several different 4OHT treatment concentrations as indicated (dose response; see e.g., FIG. 8A).
# ZF-responsive promoter [5] = experiment: Dual-drug regulated IL4 and CD19-CAR expression in CD4+ primary human T cells; assay type: cell-based
# From the text: (see e.g., FIG. 14A-14B).
# ZF-responsive promoter [6] = experiment: Activation and tunable deactivation of a fluorescent protein using ERT2 and SMASh domains, Jurkat; assay type: cell-based, human
# Experimental: Inducible synthetic transcriptional activation and tunable deactivation of a fluorescent protein in human cell lines using ERT2 and SMASh domains: Three Jurkat T cell lines were tested: (1) ZF-p65-ERT2 (no SMASh, see e.g., FIG. 4); (2) ZF-p65-ERT2-SMASh (C-terminal SMASh); and (3) SMASh-ZF-p65-ERT2 (N-terminal SMASh) (see e.g., FIG. 16A). […] Absence of a SMASh-responsive small molecule (grazoprevir) for 12 days led to equivalent, slow deactivation of the reporter to baseline levels. […] This rapid deactivation of the reporter was compared to the condition lacking the SMASh domain, which led to equivalent slow deactivation as in the “absence of grazoprevir” condition (see e.g., FIG. 16B).
# ZF-responsive promoter [7] = experiment: Tunable activation of a fluorescent protein by co-administered 4OHT and GZV, ERT2 and SMASh domains, Jurkat; assay type: cell-based, human; details: co-administration of varying 4OHT and GZV for 4 days
# Experimental: Tunable synthetic transcriptional activation of a fluorescent protein in human cell lines using ERT2 and SMASh domains: Two Jurkat T cell lines were tested: (1) ZF-p65-ERT2-SMASh (C-terminal SMASh) and (2) SMASh-ZF-p65-ERT2 (N-terminal SMASh).
# ZF-responsive promoter [8] = experiment: Inducible repression of a fluorescent protein using ERT2 and SMASh domains, Jurkat; assay type: cell-based, human; details: 6 days; KRAB-, HP1a-, EED-ZF-ERT2-SMASh lines
# Experimental: Inducible synthetic transcriptional repression of a fluorescent protein in human cell lines using […] domains: Three Jurkat T cell lines were tested: (1) KRAB-[…] (3) […]. […] Absence of a SMASh-responsive small molecule (GZV) in the negative control led to significant “leaky” repression in the absence of 4OHT (see e.g., FIG. 18).
# ZF-responsive promoter [9] = experiment: Grazoprevir-inducible transcriptional activation of a fluorescent protein using NS3, Jurkat; assay type: cell-based, human
# From the text: Non-structural protein 3 (NS3) domain can be used for small molecule regulated control over synTF activity (see e.g., Lin et al. PNAS (2008)). The non-structural protein 3 (NS3) is a serine protease originating from the hepatitis C virus and is naturally capable of self-excision from expressed proteins.
# Subsequently, the administration of one of these small molecules—e.g. grazoprevir—can prevent self-excision of NS3 from the fusion protein, allowing the ZF and effector domains to remain locally coupled and retaining synTF functionality.
# In the presence of a small molecule, the NS3 protease activity is inhibited and the fusion protein complex is stabilized, permitting the transcription factor to regulate expression of an output gene from a responsive promoter (see e.g., FIG. 5A-5C).
# Output fluorescence was measured as a function of several different grazoprevir treatment concentrations as indicated (dose response) (see e.g., FIG. 9A).
# ZF-responsive promoter [10] = experiment: Grazoprevir-inducible transcriptional repression of a fluorescent protein, HEK293 and Jurkat; assay type: cell-based, human; details: compared to untreated
# ZF-responsive promoter [11] = experiment: Inducible activation of CD19-CAR in CD4+ primary human T cells; assay type: cell-based
# From the text: (§1) Output fluorescence as a function of several different grazoprevir treatment concentrations is also indicated here. […] Cytokine production as a function of several different grazoprevir treatment concentrations is also indicated here (see e.g., FIG. 13A-13D).
# (§2) Inducible synTFs can regulate […] expression in primary cells. The grazoprevir-inducible synTF was used to control expression of a CD19-CAR in primary CD4+ cells. […] Such results highlight that the ability to reliably control expression of outputs from therapeutic, thus controlling their functionalities in increasingly complex settings (see e.g., FIG. 13A-13D).
# [12] = tested on: CD19 antigen-presenting target cells; experiment: Co-culture of induced CD19-CAR primary T cells with CD19 antigen-presenting target cells, cytokine production; assay type: cell-based, human
# From the text: as §1, §2
# ZF-responsive promoter [13] = experiment: Inducible activation of IL10 in Jurkat T cell lines, double or single lentiviral vector; assay type: cell-based, human; details: 1 uM GZV for 2 days
# From the text: This inducible activation can be achieved through the delivery of separate lentiviral cassettes for NS3-synTF expression and IL10 production (“double lentiviral vector”), or through the delivery of a single lentiviral cassette expressing the NS3-synTF as well as regulating IL10 production (see e.g., FIG. 15A-15C).
# A single lentiviral vector was engineered that was capable of expressing a grazoprevir-inducible synTF that would in turn regulate expression of IL-10. The size of this entire insert including expression elements was 3.5 kB, which is minimal and […] the total payload packaging limits of certain vectors.
# [14] = commonly taken at 100 mg/day for up to 12 weeks; cited from earlier work
# [15] = compared to untreated cell line
smiles,measurement,setting,value
"CC1=CC(=O)CC(C)(C)[C@@]1(O)/C=C/C(C)=C\C(=O)O [ABA, abscisic acid]",fluorescent protein output on administration of small molecule,ZF-responsive promoter [1]; [15],temporal activation of a fluorescent protein output
same,fluorescent protein output on removal of small molecule,ZF-responsive promoter [1]; removal after four days,temporal de-activation of a fluorescent protein output
same,fluorescent protein output on administration of small molecule,ZF-responsive promoter [2],temporal activation of a fluorescent protein output
same,"fluorescent protein output, synTF with repressor effector domain",ZF-responsive promoter [3],temporal silencing of a fluorescent protein output
"CC/C(=C(\c1ccc(O)cc1)c1ccc(OCCN(C)C)cc1)c1ccccc1 [4OHT, 4-hydroxytamoxifen]",fluorescent protein output on administration of small molecule,ZF-responsive promoter [4]; [15],temporal activation of a fluorescent protein output
same,fluorescent protein output on removal of small molecule,ZF-responsive promoter [4]; removal after four days,temporal de-activation of a fluorescent protein output
same,fluorescent protein output on administration of small molecule,ZF-responsive promoter [2],temporal activation of a fluorescent protein output
same,"fluorescent protein output, synTF with repressor effector domain",ZF-responsive promoter [3],temporal silencing of a fluorescent protein output
same,IL4 expression,ZF-responsive promoter [5]; ERT2-synTF,expression and secretion of IL4 cytokine
same,fluorescent protein on administration of 4OHT,"ZF-responsive promoter [6]; 4 days, all three Jurkat lines",temporal activation of a fluorescent protein
same,fluorescent protein on removal of 4OHT,"ZF-responsive promoter [6]; removal from days 6-16, all cell lines",temporal deactivation of the fluorescent protein
same,level of fluorescent protein activation,ZF-responsive promoter [7],maximal activation
same,"fluorescent protein on administration of 4OHT, repressor synTFs",ZF-responsive promoter [8],temporal repression of a fluorescent protein
C=C[C@@H]1C[C@]1(NC(=O)[C@@H]1C[C@@H]2CN1C(=O)[C@H](C(C)(C)C)NC(=O)O[C@@H]1C[C@H]1CCCCCc1nc3ccc(OC)cc3nc1O2)C(=O)NS(=O)(=O)C1CC1 [grazoprevir],fluorescent protein output on administration of small molecule,ZF-responsive promoter [9]; [15],temporal activation of a fluorescent protein output
same,fluorescent protein output on removal of small molecule,ZF-responsive promoter [9]; removal after four days,temporal de-activation of a fluorescent protein output
same,fluorescent protein output on administration of small molecule,ZF-responsive promoter [2],temporal activation of a fluorescent protein output
same,"fluorescent protein output, synTF with repressor effector domain",ZF-responsive promoter [3],temporal silencing of a fluorescent protein output
same,"fluorescent protein output, synTF with repressor effector domain",ZF-responsive promoter [10],temporal silencing of a fluorescent protein output
same,CD19-CAR expression,"ZF-responsive promoter [11]; CD4+ primary human T cells, several grazoprevir concentrations over time",temporal activation of a fluorescently-tagged chimeric antigen receptor (CD19-CAR) protein; also recorded: dose-dependent expression of synTF
same,CD19-CAR fold induction,"ZF-responsive promoter [11]; day 3, highest concentration",strong fold induction
same,"T-cell activation, cytokine production (IFNgamma, IL-2)",[12],"T-cell activation, measured by enhanced production of cytokines; also recorded: dose-dependent production of IFNgamma and IL-2 cytokines"
same,CD19-CAR expression in dual-drug context,ZF-responsive promoter [5]; orthogonal ZF-responsive promoter,regulated activation of a fluorescently-tagged chimeric antigen receptor (CD19-CAR) protein
same,IL10 expression,ZF-responsive promoter [13],temporal activation of a cytokine (IL10); also recorded: strong induced expression of IL-10
same,reporter deactivation with SMASh-responsive small molecule,ZF-responsive promoter [6]; grazoprevir for 12 days after 4OHT removal,fast deactivation of the reporter to the baseline levels
same,level of fluorescent protein activation,ZF-responsive promoter [7],little-to-no activation
same,safety profile,[14],exceptional safety profile
